Assays:
[1] = 101 kPa, Liquid; for viscosity: Falling or rolling sphere viscometry; for speed of sound: Frequency=3 MHz, Sing-around technique in a fixed-path interferometer; for mass density: Vibrating tube method
[2] = xn = mol fraction of the nth substance listed; settings: 101 kPa, Liquid, x2 = 0; for viscosity: Falling or rolling sphere viscometry; for speed of sound: Frequency=3 MHz, Sing-around technique in a fixed-path interferometer; for mass density: Vibrating tube method

CCCO [propan-1-ol]
[1]
Settings | mass density [kg/m3] | speed of sound [m/s] | viscosity [mPa·s]
278.15 K | 815.46 | 1275.5 | 3.191
298.15 K | 799.55 | 1205.3 | 1.936
318.15 K | 783.18 | 1137.5 | 1.242
338.15 K | 765.96 | 1070.8 | 0.836

CCCO [propan-1-ol] + CCn1cc[n+](C)c1.O=S(=O)([N-]S(=O)(=O)C(F)(F)F)C(F)(F)F
[2]
Settings | mass density [kg/m3] | speed of sound [m/s] | viscosity [mPa·s]
278.15 K | 815.46 | 1275.5 | 3.191
298.15 K | 799.55 | 1205.3 | 1.936
318.15 K | 783.18 | 1137.5 | 1.242
338.15 K | 765.96 | 1070.8 | 0.836

CCCO [propan-1-ol] + CCCCCC[n+]1ccn(C)c1.O=S(=O)([N-]S(=O)(=O)C(F)(F)F)C(F)(F)F
[2]
Settings | mass density [kg/m3] | speed of sound [m/s] | viscosity [mPa·s]
278.15 K | 815.46 | 1275.5 | 3.191
298.15 K | 799.55 | 1205.3 | 1.936
318.15 K | 783.18 | 1137.5 | 1.242
338.15 K | 765.96 | 1070.8 | 0.836

CCCO [propan-1-ol] + CCCC[n+]1ccn(C)c1.O=S(=O)([N-]S(=O)(=O)C(F)(F)F)C(F)(F)F
[2]
Settings | mass density [kg/m3] | speed of sound [m/s] | viscosity [mPa·s]
278.15 K | 815.46 | 1275.5 | 3.191
298.15 K | 799.55 | 1205.3 | 1.936
318.15 K | 783.18 | 1137.5 | 1.242
338.15 K | 765.96 | 1070.8 | 0.836

Reference: the NIST ThermoML archive (doi:10.1021/acs.jced.5b00181)
